In US20190224251A1, “METHODS OF DIFFERENTIATING STEM CELLS INTO ENDODERM” (MEMORIAL SLOAN-KETTERING CANCER CENTER, priority 2016, published 2019):
Entries after “also recorded” stand apart in the source; their conditions may differ. Each block holds one molecule with its values, some of them ahead of it.

Key:
[1] = system: HUES8 SOX17GFP/+ cells; test: Definitive endoderm (DE) differentiation, flow cytometry of SOX17-GFP reporter; format: cell-based, human; details: for formation of SOX17+ endoderm cells: Activin A and CHIR-99021 treatment, efficiency sensitive to dosages
Procedure: (§1) Human ES or iPS cells were cultured in E8 medium and routinely passed by EDTA. When cells reach to 80-90% confluences, cells were treated with TrpLE Select and get single cell for passaging. Typically, 0.15 millions human ES or iPS cells were plated in one well of the six-well plates with ROCK inhibitor 10 uM in 2 ML E8 media. For the H1 line, it was typically plated 0.1 million cells to accommodate the higher proliferation rate. Twenty-four hours later, cells were washed with PBS once and add Day0 media (Advanced RPMI (Thermo Fisher Scientific, 12633012) with penicillin/streptomycin (Thermo Fisher Scientific, 15070063), GlutaMAX (Thermo Fisher Scientific, 35050079), 0.003% BSA (Thermo Fisher Scientific, 15260037), […] CHIR-99021 (Tocris, 4423) and 100 ng/ml Activin A (PeperoTech, 12014E)). Over the next 2 days, cells were changed to Day2 media (Advanced RPMI with penicillin/streptomycin, GlutaMAX, 0.2% FBS and 100 ng/ml Activin A). […] JNK inhibitor JNK-IN-8 (Selleckchem, S4901) was used during differentiation when indicated. Routinely, around 60-80% SOX17+ cells were obtained in 3 days.
Cells were dissociated using TrypLE Select and resuspended in FACS buffer (5% FBS, 5 mM EDTA in PBS). First, cells were stained with surface antibody (CXCR4-APC) with LIVE/DEAD violet dye (Molecular Probe, L34955, 1:1,000) for 30 minutes at 4° C. After washing, […] After washing with FACS buffer, cells were fixed and permeabilized in 1× fixation/permeabilization buffer (eBioscience, 00-5523-00) for 30 minutes at 4° C. After fixation and permeabilization, cells were stained with intracellular conjugated antibody (SOX17-PE, GATA6-PE, GATA4-Alexa-647) in permeabilization buffer (eBioscience, 00-5523-00) for 30 minutes at 4° C. After washing with permeabilization buffer, cells were resuspended in FACS buffer, and samples were analyzed using BD LSRfortessa or BD LSRII. Flow cytometry analysis and figures were generated in Flowjo 10.

[2] = system: NKX6.1 and PDX1 expressing pancreatic progenitor cells; test: Pancreatic progenitor differentiation after transient JNK inhibition during DE differentiation; format: cell-based, human; details: flow cytometry and immunostaining
Source text: (§2) An improved protocol suitable for endoderm derivative lineage differentiation was developed. The improved protocol dispensed with the use of serum and inhibited JNK on the first day of definitive endoderm differentiation (FIG. 13A).

[3] = system: H1 cell line; test: Definitive endoderm (DE) differentiation, flow cytometry of SOX17; format: cell-based, human
Procedure: as §1
(§3) Cells were dissociated using TrypLE Select and resuspended in FACS buffer (5% FBS, 5 mM EDTA in PBS). […] After washing with permeabilization buffer, cells were resuspended in FACS buffer, and samples were analyzed using BD LSRfortessa or BD LSRII. […]

[4] = system: HUES6 ES cells, and BJ and CV iPS cells; test: Definitive endoderm differentiation in further ES and iPS cell lines, flow cytometry of SOX17; format: cell-based, human; details: without inhibitor efficiency 60-80%
Procedure: as §1, §3

[5] = system: DE cells differentiated from human ES cells; test: Endoderm differentiation in high or low Activin A condition, flow cytometry (CXCR4/SOX17, GATA6/GATA4) and RT-qPCR; format: cell-based; details: either high or low Activin A condition
Procedure: Human ES or iPS cells were cultured in E8 medium and routinely passed by EDTA. When cells reach to 80-90% confluences, cells were treated with TrpLE Select and get single cell for passaging. Typically, 0.15 millions human ES or iPS cells were plated in one well of the six-well plates with ROCK inhibitor 10 uM in 2 ML E8 media. For the H1 line, it was typically plated 0.1 million cells to accommodate the higher proliferation rate. […]
as §3
Cell pellets were lysed in TRIzol (Thermo Fisher Scientific, 15596018). […] Quantitative real-time PCR was performed in triplicate using ABsolute Blue QPCR SYBR Green Mix with low ROX (Thermo Scientific, #AB4322B) on the ABI PRISM® 7500 Real Time PCR System (Applied Biosystems) using the following protocol: 15 minutes at 95° C. followed by 40 cycles of 15 seconds at 95° C., 30 seconds at 58° C., and 30 seconds at 72° C. The signal was detected at 72° C.

[6] = system: C-terminal SMAD2 phosphorylation (Ser465/467) and JUN phosphorylation; test: Western blotting for signaling crosstalk between Nodal and JNK pathways; format: cell-based, human; details: 15 minutes and 1 hour after initiating differentiation
Procedure: (§4) Cell pellets were quickly snap frozen in liquid nitrogen and lysated in lysis buffer (Cell Signaling Technology, 9803) with proteinase/phosphatase inhibitors (Cell Signaling Technology, 5872) and 1 mm PMSF (MP Biomedicals, ICN19538105). Proteins were pre-cleared by centrifugation at 14,000 g 4° C. for 10 minutes. Protein concentration was determined by Bradford assay (Bio-Rad, 500-0202). Equal amounts of protein were loaded into Bis-Tris 10% gel (Novex, NP0301BOX) and transferred to nitrocellulose membranes (Novex, LC2001). Membranes were blocked with 5% milk (for non-phosphorylated proteins) or 5% BSA (for phosphorylated proteins). Primary antibody was incubated overnight at 4° C. Membranes were washed with TBST 3 times for 10 minutes each and incubated with secondary antibody for 1 hour at R.T. Membrane were washed with TBST 3 times for 10 minutes each. ECL western blotting detection reagents (Amersham, RPN2236 and Thermo Fisher Scientific, 32106) were used to visualize the protein bands.

[7] = system: definitive endoderm (SOX17 and CXCR4 expression); test: Serum-free DE differentiation with JNK inhibition on the first day; format: cell-based, human; details: one day of JNK inhibition, no serum
Source text: as §2

[8] = system: JUN phosphorylation; test: Western blot of JUN phosphorylation in DE cells; format: cell-based, human
Procedure: as §4

[9] = system: SOX17 and GATA6 enhancers; test: ChIP-qPCR of SMAD2/3 and JUN binding at the SOX17 and GATA6 enhancers; format: cell-based, human; details: DE cells at Day 2
Procedure: Definitive endoderm cells at Day 2 were collected for chromatin immunoprecipitation. Cells were cross-linked with 1% formaldehyde (Sigma, F1635) at 37° C. for 15 min and quenched with 0.125 M glycine for 5 min at room temperature. ChIP was performed as previously described 52. Samples were incubated with […] of antibody bound to […] Dynabeads protein G (Thermo Fisher Scientific, 1004D), then incubated overnight at 4° C. 2% pre-cleared chromatin prior to primary antibody addition was kept as input DNA. Magnetic beads were washed and chromatin was eluted, and reverse cross-linked ChIP DNA was dissolved in 10 mM Tris pH 8.0 buffer for further analysis. For ChIP-qPCR, immunoprecipitated DNA was analyzed by qPCR, and the amplification product was expressed as percentage of the 2% input.

[10] = system: NKX2.1 expressing lung progenitor cells; test: Lung progenitor differentiation after transient JNK inhibition during DE differentiation; format: cell-based, human; details: flow cytometry
Source text: as §2

Molecule: Cc1c[nH]c(-c2cnc(NCCNc3ccc(C#N)cn3)nc2-c2ccc(Cl)cc2Cl)n1 [CHIR-99021, 6-(2-(4-(2,4-dichlorophenyl)-5-(4-methyl-1H-imidazol-2-yl)pyrimidin-2-ylamino)ethylamino)nicotinonitrile]
formation of SOX17+ endoderm cells [1]: required
outcome of prolonged WNT activation ([1]; prolonged CHIR-99021 treatment): formation of CXCR4+SOX17− cells

binding of JUN to the SOX17 and GATA6 enhancers [9]: diminished
binding of SMAD2/3 to the SOX17 and GATA6 enhancers [9]: enhanced
Molecule: Cc1cc(NC(=O)c2cccc(NC(=O)/C=C/CN(C)C)c2)ccc1Nc1nccc(-c2cccnc2)n1 [JNK-IN-8]
number of NKX6.1 and PDX1 expressing pancreatic progenitor cells [2]: significantly increased
DE differentiation (SOX17+ cells) ([3]; 1 μm JNK-IN-8, 3 days, H1, DMSO control ~66%): ~96%
effect on DE differentiation at Day 2 versus Day 3 ([3]; 1 μm JNK-IN-8, H1 and HUES8-SOX17GFP): stronger at Day 2
endoderm differentiation efficiency [4]: significantly improved
efficiency of endoderm differentiation based on flow cytometry [5]: greater than 90%
levels of endoderm gene expression from RT-qPCR [5]: increased
C-terminal SMAD2 phosphorylation (at Ser465/467) [6]: did not change
JUN phosphorylation (Western blot) [6]: inhibited
induction of definitive endoderm (SOX17 and CXCR4 expression) [7]: sufficient to induce differentiation of definitive endoderm
phosphorylation of JUN (Western blot) ([8]; JNK-IN-8 1 μm, H1-derived DE cells at day 3): undetectable; also recorded: inhibition of JUN phosphorylation
total JUN level (Western blot) ([8]; JNK-IN-8 treated cells): down-regulated
DE differentiation (SOX17GFP+ cells) ([1]; 1 μm JNK-IN-8, 3 days, HUES8-SOX17GFP, DMSO control ~79%): ~98%
requirement for Activin A in Activin A dose titration ([1]; HUES8 SOX17GFP/+ cells): did not omit the requirement for Activin A
SOX17+ cells formed ([1]; JNK-IN-8 with 20 ng/ml Activin A, HUES8 SOX17GFP/+ cells): ~95%
number of NKX2.1 expressing lung progenitor cells [10]: significantly increased

Molecule: NC(=O)c1ccc(-c2nc(-c3ccc4c(c3)OCO4)c(-c3ccccn3)[nH]2)cc1 [SB431542]
C-terminal SMAD2 phosphorylation (at Ser465/467) [6]: blocked
JUN phosphorylation (Western blot) [6]: did not affect

B1: Activin A: TGF-β superfamily member that mimics the activity of Nodal (protein, UniProt P08476 311-426, looked up)
Inhibin beta A chain: GLECDGKVNICCKKQFFVSFKDIGWNDWIIAPSGYHANYCEGECPSHIAGTSGSSLSFHSTVINHYRMRGHSPFANLKSCCVPTKLRPMSMLYYDDGQNIIKKDIQNMIVEECGCS
modifications: Inhibin beta A chain
C-terminal SMAD2 phosphorylation (at Ser465/467) [6]: induces
formation of SOX17+ endoderm cells [1]: required
